The values that follow are results of earlier work, collected in patent US11559519B2, “Tizanidine therapy system” (MEDRx Co., Ltd., priority 2018, dated 2023).

For this series the following is noted: multiple dose, placebo-controlled clinical studies.

SMILES strings stand for the structures.

Take `Clc1ccc2nsnc2c1NC1=NCCN1` [tizanidine]: the “sedation rated as severe” value was 10%. Besides, the “patients who reported sedation as an adverse event” value (patients receiving any dose) is on record as 48%.
